Laboratory results: patent publication US9815835B2, “Substituted polycyclic carbamolypyridone derivative” (priority 2009, dated 2017)

Test system: influenza virus
Experiment: microbe, parasite or virus in culture
Assay type: cell-based, influenza virus (MDBK or MDCK cells)
Settings: unidentified influenza virus, 72 h, read-out: CPE EC50, effective concentration to achieve 50% CPE inhibition, 3 days incubation, WST-8

Structure (SMILES)	EC50
O=C(O)c1cn2c(c(O)c1=O)C(=O)N(Cc1ccc(F)cc1F)C[C@@H]2C(c1ccccc1)c1ccccc1 [Example 16]	632 nM
CCCN1C[C@H](C(c2ccccc2)c2ccccc2)n2cc(C(=O)O)c(=O)c(O)c2C1=O [Example 181]	349 nM
CC(C)=CCN1C[C@H](C(c2ccccc2)c2ccccc2)n2cc(C(=O)O)c(=O)c(O)c2C1=O [Example 182]	562 nM
CC(C)OCCN1C[C@H](C(c2ccccc2)c2ccccc2)n2cc(C(=O)O)c(=O)c(O)c2C1=O [Example 184]	403 nM
CCC(C)N1C[C@H](C(c2ccccc2)c2ccccc2)n2cc(C(=O)O)c(=O)c(O)c2C1=O (stereo partly shown) [Example 186]	159 nM
CCCC(C)N1C[C@H](C(c2ccccc2)c2ccccc2)n2cc(C(=O)O)c(=O)c(O)c2C1=O (stereo partly shown) [Example 187]	282 nM
CC(C)N1CN(Cc2ccc(Cl)c(Cl)c2)n2ccc(=O)c(O)c2C1=O [Example 199]	2720 nM
CC(N1CN(C(c2ccccc2)c2ccccc2Cl)n2ccc(=O)c(O)c2C1=O)C(F)(F)F (stereo not shown) [Example 242]	59 nM
COCCN1CN(C2c3ccccc3CCc3ccccc32)n2ccc(=O)c(O)c2C1=O [Example 258]	28 nM
CC(=O)OCC(C)N1CN(C2c3ccccc3CCc3ccccc32)n2ccc(=O)c(O)c2C1=O (stereo not shown) [Example 261]	47 nM
O=C1c2c(O)c(=O)ccn2N(C2c3ccccc3CCc3ccccc32)CN1CCF [Example 262]	38 nM
O=C1c2c(O)c(=O)ccn2N(C2c3ccccc3CCc3ccccc32)CN1CC(F)(F)F [Example 263]	75 nM
CC(C)(C)N1CN(C2c3ccccc3CCc3ccccc32)n2ccc(=O)c(O)c2C1=O [Example 265]	36 nM
COCCCN1CN(C2c3ccccc3CCc3ccccc32)n2ccc(=O)c(O)c2C1=O [Example 267]	63 nM
CS(=O)(=O)CCN1CN(C2c3ccccc3CCc3ccccc32)n2ccc(=O)c(O)c2C1=O [Example 269]	417 nM
Cc1noc(CN2CN(C3c4ccccc4CCc4ccccc43)n3ccc(=O)c(O)c3C2=O)n1 [Example 270]	129 nM

Structure (SMILES)	EC50
CC(=O)OCCN1CN(C2c3ccccc3CCc3ccccc32)n2ccc(=O)c(O)c2C1=O [Example 276]	89 nM
CC(C)N1CN(C2c3cc(F)ccc3CCc3ccc(F)cc32)n2ccc(=O)c(O)c2C1=O [Example 279]	119 nM
CC(C)N1CN(C2c3ccccc3CCc3c(Cl)cccc32)n2ccc(=O)c(O)c2C1=O (stereo not shown) [Example 282]	29 nM
CC(C)N1CN(C2c3ccc(F)cc3CCc3cc(F)ccc32)n2ccc(=O)c(O)c2C1=O [Example 284]	19 nM
CC(=O)N1CC[C@@H](N2CN(C3c4ccccc4CSc4ccccc43)n3ccc(=O)c(O)c3C2=O)C1 (stereo partly shown) [Example 289]	419 nM
CN1CCC(CN2CN(C3c4ccccc4CSc4ccccc43)n3ccc(=O)c(O)c3C2=O)CC1 (stereo not shown) [Example 292]	2230 nM
O=C1c2c(O)c(=O)ccn2N(C2c3ccccc3CSc3ccccc32)CN1CCOC(F)(F)F (stereo not shown) [Example 297]	33 nM
O=C1c2c(O)c(=O)ccn2N(C2c3ccccc3CSc3ccccc32)CN1CCCF (stereo not shown) [Example 298]	12 nM
CC(C)N1CN(C2c3ccccc3CSc3ccccc32)n2ccc(=O)c(O)c2C1=O (stereo not shown) [Example 301]	17 nM
O=C1c2c(O)c(=O)ccn2N(C2c3ccccc3CSc3ccccc32)CN1CC(F)(F)F (stereo not shown) [Example 306]	21 nM
CCOCCN1CN(C2c3ccccc3CSc3ccccc32)n2ccc(=O)c(O)c2C1=O (stereo not shown) [Example 312]	29 nM
COCC(COC)N1CN(C2c3ccccc3CSc3ccccc32)n2ccc(=O)c(O)c2C1=O (stereo not shown) [Example 318]	15 nM
CC(=O)OCCN1CN(C2c3ccccc3CSc3ccccc32)n2ccc(=O)c(O)c2C1=O (stereo not shown) [Example 325]	25 nM
CC(C)N1CN(C2c3ccccc3CSc3ccc(Cl)cc32)n2ccc(=O)c(O)c2C1=O (stereo not shown) [Example 328]	168 nM
COCC(COC)N1CN(C2c3cc(F)ccc3CSc3ccc(F)cc32)n2ccc(=O)c(O)c2C1=O (stereo not shown) [Example 340]	27 nM
